# “And” between values parts separate entries of the source, which are not always exact repeats. Equal entries are not always repeated.
# Key:
# [1] = test system: PBMC from healthy, seropositive donors; format: cell-based, human
# HLA-DRB1*07 = format: binding, human; parameters: reference not given here; settings: 24–72 h at 37°C
# HLA-DRB1*09 = format: binding, human; parameters: reference not given here; settings: 24–72 h at 37°C
# HLA-DRB1*11:01 = molecular target: T1, HLA-DRB1*11:01 (Homo sapiens, UniProt P01903+P01911, A100R/A169T/A87E/I96F/K41T/L162R/M171V/P40S/Q125H/Q178H/Q39Y/Q99D/R42S/S66Y/T262R/V115G/W38E); format: binding; parameters: reference not given here; settings: 24–72 h at 37°C
# T1 construct: Purified HLA-DR heterodimers derived from the relevant EBV B-lymphoblastoid cell lines; endogenous in cells
# T1 sequence (P01903 26-254, other chains not shown): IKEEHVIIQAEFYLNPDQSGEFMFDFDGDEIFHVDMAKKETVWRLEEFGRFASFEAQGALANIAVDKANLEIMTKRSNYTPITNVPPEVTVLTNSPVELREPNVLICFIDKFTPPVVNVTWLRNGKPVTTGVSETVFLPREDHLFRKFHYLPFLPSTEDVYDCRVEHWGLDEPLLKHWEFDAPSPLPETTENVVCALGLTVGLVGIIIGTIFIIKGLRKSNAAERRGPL
# HLA-DRB1*12:02 = HLA-DRB1*12:02 (Homo sapiens, UniProt P01903+P01911, A100R/A169T/D57E/D86V/F55L/H45Y/I96F/K41T/L162R/M171V/P40S/Q125H/Q178H/Q39Y/Q99D/R42G/S66L/T262R/V114A/V67L/W38E/Y59H/Y61H/Y89S); format: binding; parameters: reference not given here; settings: 24–72 h at 37°C
# HLA-DRB1*15:01 = molecular target: T2, HLA-DRB1*15:01 (Homo sapiens, UniProt P01903+P01911); format: binding; parameters: reference not given here; settings: 24–72 h at 37°C
# T2 construct: Purified HLA-DR heterodimers derived from the relevant EBV B-lymphoblastoid cell lines; endogenous in cells
# HLA-DRB1*15:02 = molecular target: T3, HLA-DRB1*15:02 (Homo sapiens, UniProt P01903+P01911, V115G); format: binding; parameters: reference not given here; settings: 24–72 h at 37°C
# T3 construct: Purified HLA-DR heterodimers derived from the relevant EBV B-lymphoblastoid cell lines; endogenous in cells
# T3 sequence (P01903 26-254, other chains not shown): as above
Sequence,% Responders [1],Median SFC/10^6 PBMCs (IFN-g) [1],also measured
AWRREHKDLDKLNHYSFGDV [BPSL2096_P10],88.2%,351,
WKSQLRSDEVALPIARVAGR [BPSS0530_P17],97.7%,274,
RDLAVSKLSQLAGVQVVQSN [BPSL0280_P21],93.1%,493,
ITNYFTGLQTVANNAADPSA [BPSL0280_P12],82.8%,557,
LERLHTDYAWGGWNVVIGEP [BPSS1599_P14],95.8%,157,
EVPDLAVGLDAPGTPRRLTI [BPSS0530_P14],95.3%,279,
DPLPPAMLYHELVGLLGRLS [BPSS0530_P27],86.0%,239,
EFVRAIDVPGLRVERIAYQN [BPSS1599_P41],87.5%,135,
VGYTDSTGSAAHNQTLSQNR [BPSL0999_P15],97.9%,367,
LLLRQAIAEYRMRLANLDAF [BPSS0530_P25],81.4%,244,
NNHEENGQSAFETVTEASFP [BPSL2096_P3],91.2%,308,
GGWNVVIGEPELERQGFQNF [BPSS1599_P15],87.5%,179,
CLALQAARTGGPEMAFGDVE [BPSS0530_P11],97.7%,256,
ASPTWRAYRLNANLGGIAPP [BPSS1599_P39],87.5%,143,
PEQGPRAPLANLAQQAAALP [BPSS1599_P37],93.8%,147,
AVNDNWVNGTGEWVWMNGTN [BPSL2522_P4],91.4%,368,
AALPDALAFARACAMRFGRL [BPSS1599_P26],89.6%,164,
KLVDLQLPGARLNALPNPPR [BPSS0530_P39],86.0%,221,
AAKIQGMNVEVVVATGYTDR [BPSL2522_P13],100%,291,"Elispot, Median SFC/10^6 PBMCs of HLA donors [1]: 362 SFC/10^6 PBMCs and 488 SFC/10^6 PBMCs and 487 SFC/10^6 PBMCs and 578 SFC/10^6 PBMCs and 351 SFC/10^6 PBMCs and 534 SFC/10^6 PBMCs; HLA binding, relative HLA binding affinity (HLA-DRB1*07): 11; HLA binding, relative HLA binding affinity (HLA-DRB1*09): 42; HLA binding, relative HLA binding affinity (HLA-DRB1*11:01): 23; HLA binding, relative HLA binding affinity (HLA-DRB1*12:02): 5; HLA binding, relative HLA binding affinity (HLA-DRB1*15:01): 5; HLA binding, relative HLA binding affinity (HLA-DRB1*15:02): 667"
AAQKAIDAAKSQVANDNAVA [BPSS1531_P40],85.7%,198,
TAACVVLGGAFAYWHHRAKV [BPSS1599_P21],100.0%,170,
APGTPRRLTIETGQLVTRLC [BPSS0530_P15],93.0%,255,
NANLGGIAPPEFVRAIDVPG [BPSS1599_P40],89.6%,137,

Sequence,% Responders [1],Median SFC/10^6 PBMCs (IFN-g) [1],also measured
NSYTSQIAQLNEQIASASSQ [BPSL0280_P18],93.1%,523,
LQTSFEPLAMMLRQALARVI [BPSS0530_P31],97.7%,240,
ELVGLLGRLSVLPGVDEELA [BPSS0530_P28],88.4%,260,
QPAPNWLGAFALPDGRWAYF [BPSS1599_P10],95.8%,189,
QPKRLDDLLPRRGGRPRTER [BPSS1599_P17],83.3%,141,
AVRDHAFMPNGDWVGSREEA [BPSS1599_P12],97.9%,178,
GVAAAGYANTRDGFAPGHLS [BPSS1599_P6],85.4%,129,
AGAILGAVVTGVALVAAAFV [BPSS1532_P44],100.0%,156,
ELQSTLRVRLASTSAQRVLS [BPSS0530_P22],88.4%,247,
AWAERFDRYLDDADALVASA [BPSL2504_P8],91.4%,317,
CMDPATRAGNVRPAFIEALG [BPSS1525_P14],82.1%,200,
SVLAQEAPARQHRIDMHGMR [BPSS1531_P31],88.6%,182,
MSAAAQDRSIGAAQMTAAIA [BPSS1531_P20],91.4%,225,
DRGDQVHICIVDKQWNLKKL [BPSS0530_P34],86.0%,299,
GDWVGSREEALERLHTDYAW [BPSS1599_P13],95.8%,182,
DNATEAGRAQNRRVEIYLRA [BPSL0999_P20],93.6%,353,
IRLRADTLMGAELAARPEYR [BPSS1525_P19],82.1%,197,
TPLADDSVVRTQLLARLQWL [BPSS1599_P34],97.9%,147,
FETVTEASFPGKWKIIYFYP [BPSL2096_P4],88.2%,305,
SNHGWGFTLLDLDQDGLGLG [BPSS0530_P5],93.0%,224,
LASRYRAVSTEVPDLAVGLD [BPSS0530_P13],97.7%,267,
TELAQAGDIACLALQAARTG [BPSS0530_P10],93.0%,280,
FSKIGETLGQLFRHRAPDSA [BPSS1525_P5],89.7%,178,

Sequence,% Responders [1],Median SFC/10^6 PBMCs (IFN-g) [1],also measured
DAAAKLERLLPEQGPRAPLA [BPSS1599_P36],89.6%,143,
WARNGSNVRYLLVVEPGATL [BPSS1599_P30],91.7%,155,
LLVVEPGATLDTDGERATLD [BPSS1599_P31],83.3%,151,
FAYWHHRAKVEAEEREAALE [BPSS1599_P22],95.8%,169,
SALSATDQANATAMVAQINA [BPSL3319_P27],86.7%,259,
NLAQQAAALPASPTWRAYRL [BPSS1599_P38],89.6%,125,
EKLRQLLPQQTKLGAVEQIQ [BPSS0530_P37],83.7%,222,
TKLGAVEQIQKLVDLQLPGA [BPSS0530_P38],90.7%,305,
WSDGMLIETQHFQQLERHLA [BPSS0530_P2],90.7%,260,
YLVSKGVPANKVYTEGKGKR [BPSL2522_P17],82.9%,312,
EAEEREAALERVRAELAARQ [BPSS1599_P23],91.7%,147,
DTDGERATLDVPLTAPTAND [BPSS1599_P32],87.5%,148,
RVRAELAARQARSGPVAPPW [BPSS1599_P24],87.5%,119,
APDRRVEVEVVGTQEVQKTT [BPSL2522_P21],100.0%,273,
GRQVYEATLCAIFSEAKDRF [BPSS1525_P12],84.6%,201,
ALPIARVAGRNASRTVSLDP [BPSS0530_P18],100.0%,249,
VPLTAPTANDTPLADDSVVR [BPSS1599_P33],83.3%,147,
QRFVGGLFWQSLSRRNELRA [BPSS1599_P2],81.3%,137,
GKGAAIGAGVGALVGGVTGY [BPSL0999_P6],91.5%,357,
REPKKQDICYATQNRQDAVK [BPSL0919_P21],94.6%,422,
GAAQMTAAIAGGALQATTSL [BPSS1531_P21],97.1%,225,
AHLVLRSLIDELQSTLRVRL [BPSS0530_P21],93.0%,258,

# Source: PMC5869189 (Frontiers in Immunology, 2018)
